Assay results reported in patent US10030020B2, “Spirocycle compounds and methods of making and using same” (Abide Therapeutics, Inc., priority 2016, dated 2018).

Key:
[1] = molecular target: T1, MAGL (Mus musculus (Mouse), UniProt O35678); test: In vitro competitive activity-based protein profiling (mouse brain membrane fraction or cell lysates), MAGL band; assay type: biochemical; details: mouse proteome; for inhibition at 1 µM: read-out: MAGL % Inh 1 μM (mouse); for IC50: competitive ABPP
Experimental: In Vitro Competitive Activity-Based Protein Profiling.
Proteomes (mouse brain membrane fraction or cell lysates) (50 μL, 1.0 mg/mL total protein concentration) were preincubated with varying concentrations of inhibitors at 37° C. After 30 min, FP—Rh (1.0 μL, 50 μM in DMSO) was added and the mixture was incubated for another 30 min at 37° C. Reactions were quenched with SDS loading buffer (50 μL-4×) and run on SDS-PAGE.

[2] = molecular target: T2, ABHD6 (Mus musculus (Mouse), UniProt Q8R2Y0); test: In vitro competitive activity-based protein profiling (mouse brain membrane fraction or cell lysates), ABHD6 band; assay type: biochemical; details: mouse proteome; for inhibition at 1 µM: read-out: ABHD6 % Inh 1 μM (mouse); for IC50: competitive ABPP
T2 sequence (Q8R2Y0 whole entry): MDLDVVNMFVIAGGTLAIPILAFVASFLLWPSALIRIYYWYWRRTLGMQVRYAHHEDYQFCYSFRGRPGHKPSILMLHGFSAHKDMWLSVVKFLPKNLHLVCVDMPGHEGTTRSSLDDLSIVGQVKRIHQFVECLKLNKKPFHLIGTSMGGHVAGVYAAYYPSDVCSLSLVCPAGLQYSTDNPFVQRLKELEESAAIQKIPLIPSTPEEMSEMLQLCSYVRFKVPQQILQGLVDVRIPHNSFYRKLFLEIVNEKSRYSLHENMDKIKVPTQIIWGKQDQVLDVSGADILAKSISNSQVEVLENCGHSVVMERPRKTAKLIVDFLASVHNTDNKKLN
Summary of the method: (§1)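 Mouse proteome samples (brain membrane fraction or cell lysate, 1.0 mg/mL protein) were pretreated with varying inhibitor concentrations and subsequently probed with fluorophosphonate-rhodamine, each step lasting 30 min at 37° C. Labelled proteins were separated by SDS-PAGE, and band fluorescence was imaged and quantified.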

[3] = molecular target: T3, FAAH (Mus musculus (Mouse), UniProt O08914); test: In vitro competitive activity-based protein profiling (mouse brain membrane fraction or cell lysates), FAAH band; assay type: biochemical; details: mouse proteome; for inhibition at 1 µM: read-out: FAAH % Inh 1 μM (mouse); for IC50: competitive ABPP
T3 sequence (O08914 whole entry): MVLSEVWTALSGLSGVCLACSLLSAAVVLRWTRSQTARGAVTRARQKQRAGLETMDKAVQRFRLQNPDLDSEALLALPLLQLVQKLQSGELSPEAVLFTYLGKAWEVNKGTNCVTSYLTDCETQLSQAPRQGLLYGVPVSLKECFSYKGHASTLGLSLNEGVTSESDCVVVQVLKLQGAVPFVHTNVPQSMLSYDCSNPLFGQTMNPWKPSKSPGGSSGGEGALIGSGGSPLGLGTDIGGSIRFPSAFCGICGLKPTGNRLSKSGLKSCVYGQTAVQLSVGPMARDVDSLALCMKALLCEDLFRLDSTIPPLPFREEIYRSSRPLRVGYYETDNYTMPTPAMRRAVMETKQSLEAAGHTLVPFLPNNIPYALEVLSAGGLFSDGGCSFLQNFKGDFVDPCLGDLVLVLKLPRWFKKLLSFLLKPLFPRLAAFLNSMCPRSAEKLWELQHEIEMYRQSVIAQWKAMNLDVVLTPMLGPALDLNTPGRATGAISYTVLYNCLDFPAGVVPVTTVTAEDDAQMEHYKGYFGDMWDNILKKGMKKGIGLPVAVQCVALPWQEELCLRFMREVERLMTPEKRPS
Summary of the method: as §1

[4] = molecular target: T1, MAGL; test: Mouse brain proteomes from inhibitor treated mice (oral gavage, sacrificed 4 h after administration, ABPP analysis); assay type: in vivo, mouse (C57Bl/6J); details: 5 mg/kg oral gavage
Summary of the method: (§2)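 Values give % inhibition in brain after a 5 mg/kg oral gavage dose to wild-type C57Bl/6J mice, with vehicle e.g. PEG400/Ethanol/PBS (7/2/1). Animals were killed 4 h post-dose and brain proteome activity was read by ABPP.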

[5] = molecular target: T3, FAAH; test: Mouse brain proteomes from inhibitor treated mice (oral gavage, sacrificed 4 h after administration, ABPP analysis), FAAH; assay type: in vivo, mouse (C57Bl/6J); details: 5 mg/kg oral gavage
Summary of the method: as §2

[6] = molecular target: T2, ABHD6; test: Mouse brain proteomes from inhibitor treated mice (oral gavage, sacrificed 4 h after administration, ABPP analysis), ABHD6; assay type: in vivo, mouse (C57Bl/6J); details: 5 mg/kg oral gavage
Summary of the method: as §2

T1 sequence (O35678 whole entry): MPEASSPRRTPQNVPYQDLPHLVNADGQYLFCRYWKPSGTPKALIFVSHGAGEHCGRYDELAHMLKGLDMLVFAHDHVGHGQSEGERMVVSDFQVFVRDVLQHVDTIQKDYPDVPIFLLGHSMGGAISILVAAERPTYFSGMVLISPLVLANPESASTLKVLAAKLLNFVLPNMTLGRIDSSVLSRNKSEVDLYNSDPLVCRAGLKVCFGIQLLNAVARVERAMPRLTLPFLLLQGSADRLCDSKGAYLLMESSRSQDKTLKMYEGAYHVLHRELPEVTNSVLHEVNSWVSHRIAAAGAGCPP

With `O=C(OC(C(F)(F)F)C(F)(F)F)N1CCC2(CCCN2Cc2ccc(C(F)(F)F)cc2N2CC3COCC3C2)CC1` (stereo not drawn) [Example 97, 1,1,1,3,3,3-Hexafluoropropan-2-yl 1-(2-(tetrahydro-1H-furo[3,4-c]pyrrol-5(3H)-yl)-4-(trifluoromethyl)benzyl)-1,8-diazaspiro[4.5]decane-8-carboxylate] the inhibition at 1 µM [1] was over 75%, the IC50 [1] was under 100 nM and the inhibition at 1 µM [2] was under 25%. It also gave an IC50 [2] of over 1000 nM, an inhibition at 1 µM [3] of under 25% and an IC50 [3] of over 1000 nM. For the same molecule, the “MAGL % Inh 5 mg/kg (mouse)” value [4] was “### (### is ≥75%)”, the “FAAH % Inh 5 mg/kg (mouse)” value [5] was “# (# is <25%)” and the “ABHD6 % Inh 5 mg/kg (mouse)” value [6] was “# (# is <25%)”.
`CC(=O)N1CCN(c2cc(Cl)ccc2CN2CCCC23CCN(C(=O)OC(C(F)(F)F)C(F)(F)F)CC3)CC1` [Example 99, 1,1,1,3,3,3-Hexafluoropropan-2-yl 1-(2-(4-acetylpiperazin-1-yl)-4-chlorobenzyl)-1,8-diazaspiro[4.5]decane-8-carboxylate] showed an inhibition at 1 µM [1] of over 75%, an IC50 [1] of under 100 nM and an inhibition at 1 µM [2] of under 25%. It also gave an IC50 [2] of over 1000 nM, an inhibition at 1 µM [3] of under 25% and an IC50 [3] of over 1000 nM. For the same molecule, the “MAGL % Inh 5 mg/kg (mouse)” value [4] was “### (### is ≥75%)”, the “FAAH % Inh 5 mg/kg (mouse)” value [5] was “# (# is <25%)” and the “ABHD6 % Inh 5 mg/kg (mouse)” value [6] was “# (# is <25%)”.
`CS(=O)(=O)N1CCN(c2cc(Cl)ccc2CN2CCCC23CCN(C(=O)OC(C(F)(F)F)C(F)(F)F)CC3)CC1` [Example 100, 1,1,1,3,3,3-Hexafluoropropan-2-yl 1-(4-chloro-2-(4-(methylsulfonyl)piperazin-1-yl)benzyl)-1,8-diazaspiro[4.5]decane-8-carboxylate] was tested, and the inhibition at 1 µM [1] was over 75%, the IC50 [1] was under 100 nM and the inhibition at 1 µM [2] was under 25%. The IC50 [2] was over 1000 nM, the inhibition at 1 µM [3] was under 25% and the IC50 [3] was over 1000 nM. The “MAGL % Inh 5 mg/kg (mouse)” value [4] was “### (### is ≥75%)”, the “FAAH % Inh 5 mg/kg (mouse)” value [5] was “# (# is <25%)” and the “ABHD6 % Inh 5 mg/kg (mouse)” value [6] was “# (# is <25%)”.
Molecule `O=C(OC(C(F)(F)F)C(F)(F)F)N1CCC2(CCCN2Cc2ccc(Cl)cc2N2CCC(F)(F)CC2)CC1` [Example 101, 1,1,1,3,3,3-Hexafluoropropan-2-yl 1-(4-chloro-2-(4,4-difluoropiperidin-1-yl)benzyl)-1,8-diazaspiro[4.5]decane-8-carboxylate] has an inhibition at 1 µM [1] of over 75%, an IC50 [1] of under 100 nM and an inhibition at 1 µM [2] of under 25%. For the same molecule, the IC50 [2] was over 1000 nM, the inhibition at 1 µM [3] was under 25% and the IC50 [3] was over 1000 nM. The “MAGL % Inh 5 mg/kg (mouse)” value [4] was “### (### is ≥75%)”, the “FAAH % Inh 5 mg/kg (mouse)” value [5] was “# (# is <25%)” and the “ABHD6 % Inh 5 mg/kg (mouse)” value [6] was “# (# is <25%)”.
In the case of `O=C(OC(C(F)(F)F)C(F)(F)F)N1CCC2(CCCN2Cc2ccc(Cl)cc2N2CCC(F)CC2)CC1` [Example 102, 1,1,1,3,3,3-Hexafluoropropan-2-yl 1-(4-chloro-2-(4-fluoropiperidin-1-yl)benzyl)-1,8-diazaspiro[4.5]decane-8-carboxylate], the inhibition at 1 µM [1] is reported as over 75%, the IC50 [1] is reported as under 100 nM and the inhibition at 1 µM [2] is reported as under 25%. The IC50 [2] was over 1000 nM, the inhibition at 1 µM [3] was under 25% and the IC50 [3] was over 1000 nM. For the same molecule, the “MAGL % Inh 5 mg/kg (mouse)” value [4] was “### (### is ≥75%)”, the “FAAH % Inh 5 mg/kg (mouse)” value [5] was “# (# is <25%)” and the “ABHD6 % Inh 5 mg/kg (mouse)” value [6] was “# (# is <25%)”.
`CC(=O)NC1CCN(c2cc(Cl)ccc2CN2CCCC23CCN(C(=O)OC(C(F)(F)F)C(F)(F)F)CC3)CC1` [Example 104, 1,1,1,3,3,3-Hexafluoropropan-2-yl 1-(2-(4-acetamidopiperidin-1-yl)-4-chlorobenzyl)-1,8-diazaspiro[4.5]decane-8-carboxylate] gave an inhibition at 1 µM [1] of over 75%, an IC50 [1] of under 100 nM and an inhibition at 1 µM [2] of under 25%. The IC50 [2] was over 1000 nM, the inhibition at 1 µM [3] was 25 to 75% and the IC50 [3] was over 1000 nM. For the same molecule, the “MAGL % Inh 5 mg/kg (mouse)” value [4] was “## (## is equal to or greater than 25% but less than 75%)”, the “FAAH % Inh 5 mg/kg (mouse)” value [5] was “# (# is <25%)” and the “ABHD6 % Inh 5 mg/kg (mouse)” value [6] was “# (# is <25%)”.
For `CS(=O)(=O)NC1CCN(c2cc(Cl)ccc2CN2CCCC23CCN(C(=O)OC(C(F)(F)F)C(F)(F)F)CC3)CC1` [Example 105, 1,1,1,3,3,3-Hexafluoropropan-2-yl 1-(4-chloro-2-(4-(methylsulfonamido)piperidin-1-yl)benzyl)-1,8-diazaspiro[4.5]decane-8-carboxylate], the inhibition at 1 µM [1] was over 75%, the IC50 [1] was under 100 nM and the inhibition at 1 µM [2] was under 25%. The IC50 [2] was over 1000 nM, the inhibition at 1 µM [3] was under 25% and the IC50 [3] was over 1000 nM. For the same molecule, the “MAGL % Inh 5 mg/kg (mouse)” value [4] was “# (# is <25%)”, the “FAAH % Inh 5 mg/kg (mouse)” value [5] was “# (# is <25%)” and the “ABHD6 % Inh 5 mg/kg (mouse)” value [6] was “# (# is <25%)”.
